Oligonucleotides are written 5' to 3', each unit as a sugar letter and its base; * is a phosphorothioate linkage, no mark a phosphodiester; rarer units and linkages stand in square brackets, end groups in braces. Plain capitals give the bases only. e = 2'-O-(2-methoxyethyl) (MOE); [5mC] = 5-methylcytosine; d = 2'-deoxy (DNA)
tested on: Human STAT3 mRNA; assay: Inhibition of human STAT3 mRNA levels in A549 cells, 75 nM, real-time PCR (Table 13); type: cell-based; settings: 75 nM oligonucleotide with LIPOFECTIN, real-time PCR PPS 199, percent inhibition relative to untreated control cells, average of 2 experiments
Procedure: Oligonucleotide activity is assayed by quantitation of STAT3 mRNA levels by real-time PCR (RT-PCR) using the ABI PRISMS 7700 Sequence Detection System (PE-Applied Biosystems, Foster City, Calif.) according to manufacturer's instructions. This is a closed-tube, non-gel-based, fluorescence detection system which allows high-throughput quantitation of polymerase chain reaction (PCR) products in real-time. As opposed to standard PCR, in which amplification products are quantitated after the PCR is completed, products in RT-PCR are quantitated as they accumulate. This is accomplished by including in the PCR reaction an oligonucleotide probe that anneals specifically between the forward and reverse PCR primers, and contains two fluorescent dyes. A reporter dye (e.g., JOE or FAM, PE-Applied Biosystems, Foster City, Calif.) is attached to the 5′ end of the probe and a quencher dye (e.g., TAMRA, PE-Applied Biosystems, Foster City, Calif.) is attached to the 3′ end of the probe. When the probe and dyes are intact, reporter dye emission is quenched by the proximity of the 3′ quencher dye. During amplification, annealing of the probe to the target sequence creates a substrate that can be cleaved by the 5′-exonuclease activity of Taq polymerase. […] With each cycle, additional reporter dye molecules are cleaved from their respective probes, and the fluorescence intensity is monitored at regular (six-second) intervals by laser optics built into the ABI PRISM™ 7700 Sequence Detection System. In each assay, a series of parallel reactions containing serial dilutions of mRNA from untreated control samples generates a standard curve that is used to quantitate the percent inhibition after antisense oligonucleotide treatment of test samples.
RT-PCR reagents are obtained from PE-Applied Biosystems, Foster City, Calif. RT-PCR reactions are carried out by adding 25 l PCR cocktail (1× TAQMAN7 buffer A, 5.5 mM MgCl2, 300 µM each of DATP, dCTP and dGTP, 600 µM of dUTP, 100 nM each of forward primer, reverse primer, and probe, 20 U RNAse inhibitor, 1.25 units AMPLITAQ GOLD7, and 12.5 U MuLV reverse transcriptase) to 96 well plates containing 25 l poly(A) mRNA solution. The RT reaction is carried out by incubation for 30 minutes at 48° C. following a 10 minute incubation at 95° C. to activate the AMPLITAQ GOLD7, 40 cycles of a two-step PCR protocol are carried out: 95° C. for 15 seconds (denaturation) followed by 60° C. for 1.5 minutes (annealing/extension).
The compounds were analyzed for their effect on STAT3 mRNA levels in A549 cells. The human lung carcinoma cell line A549 was obtained from the American Type Culture Collection (ATCC) (Manassas, Va.). A549 cells were routinely cultured in DMEM basal media (Invitrogen Corporation, Carlsbad, Calif.) supplemented with 10% fetal calf serum (Invitrogen Corporation, Carlsbad, Calif.), 100 units/mL penicillin, and 100 ug/mL streptomycin (Invitrogen Corporation, Carlsbad, Calif.). Cells were routinely passaged by trypsinization and dilution when they reached 90% confluence.
When cells reached 65-75% confluency, they were treated with oligonucleotide. For cells grown in 96-well plates, wells were washed once with […] OPTI-MEM-1 reduced-serum medium (Invitrogen Corporation, Carlsbad, Calif.) and then treated with 130 µL of OPTI-MEM-1 containing […] LIPOFECTIN (Invitrogen Corporation, Carlsbad, Calif.) and 75 nM of the compounds in Table 13. Cells were treated and data were obtained in duplicate. Untreated cells served as controls. After 4-7 hours of treatment at 37° C., the medium was replaced with fresh medium. Cells were harvested 16-24 hours after oligonucleotide treatment. STAT3 mRNA levels in A549 cells were quantitated by real-time PCR as described by other methods herein.
Probes and primers to human STAT3 were designed to hybridize to a human STAT3 sequence, using published sequence information (incorporated herein as SEQ ID NO: 1). For STAT 3 the PCR primers were: • forward primer: […]

In order of rising “% Inhib (inhibition of human STAT 3 mRNA levels)” value:
1. 337248 (antisense eT*eA*eT*eT*eG*dA*dA*dA*dA*dT*dT*dA*dT*d[5mC]*dT*eA*eA*eT*eT*e[5mC]) [compound 337248]  0%
2. 337246 (antisense e[5mC]*eT*e[5mC]*e[5mC]*eT*dA*dA*dA*dT*dT*dA*dA*dG*dA*dA*e[5mC]*eT*eT*e[5mC]*eT) [compound 337246]  37%
3. 337280 (antisense eT*eT*eA*eT*eA*dG*dT*dT*dG*dA*dA*dA*dT*d[5mC]*dA*eA*eA*eG*eT*e[5mC]) [compound 337280]  45%
4. 337249 (antisense eT*eT*eG*eG*eG*d[5mC]*d[5mC]*dA*dT*d[5mC]*d[5mC]*dT*dG*d[5mC]*dT*eA*eA*eA*eA*eT) [compound 337249]  48%
5. 337253 (antisense eA*eA*eA*eT*eG*d[5mC]*dG*dG*dA*d[5mC]*d[5mC]*d[5mC]*dA*dA*dG*eA*eG*eT*eT*eT) [compound 337253]  49%
6. 337250 (antisense eA*eT*eT*e[5mC]*eA*d[5mC]*dT*dT*dG*d[5mC]*d[5mC]*dT*d[5mC]*d[5mC]*dT*eT*eG*eA*e[5mC]*eT) [compound 337250]  51%
7. 337258 (antisense eT*e[5mC]*e[5mC]*eG*eG*d[5mC]*dA*dG*dA*dG*dG*d[5mC]*d[5mC]*dG*dA*eG*eA*eG*eG*e[5mC]) [compound 337258]  56%
8. 337254 (antisense e[5mC]*eT*eT*eG*eT*dT*d[5mC]*d[5mC]*d[5mC]*dT*d[5mC]*dG*dG*d[5mC]*dT*eG*e[5mC]*eG*eA*e[5mC]) [compound 337254]  57%
9. 337259 (antisense e[5mC]*e[5mC]*eA*eT*e[5mC]*d[5mC]*dT*dG*d[5mC]*dT*dA*dA*dA*dA*dT*e[5mC]*eA*eG*eG*eG) [compound 337259]  58%
10. 337252 (antisense e[5mC]*eT*eG*eA*eA*d[5mC]*dT*dT*dA*d[5mC]*d[5mC]*d[5mC]*dT*d[5mC]*dT*eG*eA*eG*eA*eG) [compound 337252]  60%
11. 337266 (antisense eT*e[5mC]*eG*eT*eA*dG*dA*dT*dT*dG*dT*dG*d[5mC]*dT*dG*eA*eT*eA*eG*eA) [compound 337266]  61%
12. 337260 (antisense e[5mC]*e[5mC]*eA*eT*eT*dG*dG*dG*d[5mC]*d[5mC]*dA*dT*d[5mC]*d[5mC]*dT*eG*e[5mC]*eT*eA*eA) [compound 337260]  62%
13. 337267 (antisense eA*eG*eA*eA*eA*d[5mC]*dT*dG*d[5mC]*dT*dT*dG*dA*dT*dT*e[5mC]*eT*eT*e[5mC]*eG) [compound 337267]  62%
14. 337256 (antisense eG*eA*eA*eG*eG*dG*d[5mC]*d[5mC]*dT*d[5mC]*dT*d[5mC]*d[5mC]*dG*dA*eG*e[5mC]*e[5mC]*eG*eA) [compound 337256]  67%
15. 337278 (antisense eA*eA*eT*e[5mC]*eA*dA*dA*dG*dT*d[5mC]*dA*dT*d[5mC]*d[5mC]*dT*eG*eG*eA*eG*eA) [compound 337278]  69%
16. 337273 (antisense e[5mC]*e[5mC]*eA*eG*e[5mC]*dA*dT*d[5mC]*dT*dG*d[5mC]*dT*dG*d[5mC]*dT*eT*e[5mC]*eT*e[5mC]*e[5mC]) [compound 337273]  73%
17. 337251 (antisense eA*eT*eG*e[5mC]*e[5mC]*d[5mC]*dT*dT*dA*d[5mC]*dT*d[5mC]*dT*d[5mC]*d[5mC]*eG*e[5mC]*eA*eT*e[5mC]) [compound 337251]  74%
18. 337262 (antisense eA*eA*e[5mC]*eT*eG*d[5mC]*d[5mC]*dG*d[5mC]*dA*dG*d[5mC]*dT*d[5mC]*d[5mC]*eA*eT*eT*eG*eG) [compound 337262]  74%
19. 337269 (antisense eT*eT*e[5mC]*eT*e[5mC]*dA*dA*dG*dA*dT*dA*d[5mC]*d[5mC]*dT*dG*e[5mC]*eT*e[5mC]*eT*eG) [compound 337269]  74%
20. 337272 (antisense eA*eT*e[5mC]*eT*eG*d[5mC]*dT*dG*d[5mC]*dT*dT*d[5mC]*dT*d[5mC]*d[5mC]*eG*eT*e[5mC]*eA*e[5mC]) [compound 337272]  74%
21. 337274 (antisense eT*eG*eA*eA*eG*dG*dT*dG*d[5mC]*dT*dG*d[5mC]*dT*d[5mC]*d[5mC]*eA*eG*e[5mC]*eA*eT) [compound 337274]  74%
22. 337255 (antisense eG*e[5mC]*e[5mC]*eT*eG*dT*d[5mC]*d[5mC]*dA*dG*dG*dA*dT*d[5mC]*d[5mC]*eG*eG*eT*eT*eG) [compound 337255]  75%
23. 337268 (antisense eG*eA*eT*eA*e[5mC]*d[5mC]*dT*dG*d[5mC]*dT*d[5mC]*dT*dG*dA*dA*eG*eA*eA*eA*e[5mC]) [compound 337268]  75%
24. 337245 (antisense eA*eG*e[5mC]*e[5mC]*eT*d[5mC]*dT*dG*d[5mC]*dA*d[5mC]*d[5mC]*d[5mC]*dT*d[5mC]*eA*eT*eG*eT*eT) [compound 337245]  77%
25. 337279 (antisense eG*eT*eT*eG*eA*dA*dA*dT*d[5mC]*dA*dA*dA*dG*dT*d[5mC]*eA*eT*e[5mC]*e[5mC]*eT) [compound 337279]  78%
26. 337261 (antisense eT*eG*eT*e[5mC]*eA*dA*dG*d[5mC]*dT*dG*d[5mC]*dT*dG*dT*dA*eG*e[5mC]*eT*eG*eA) [compound 337261]  79%
27. 337263 (antisense eT*e[5mC]*eT*eT*eG*dA*d[5mC]*dT*d[5mC]*dT*d[5mC]*dA*dA*dT*d[5mC]*e[5mC]*eA*eA*eG*eG) [compound 337263]  79%
28. 337277 (antisense eA*eA*eG*eT*e[5mC]*dA*dT*d[5mC]*d[5mC]*dT*dG*dG*dA*dG*dA*eT*eT*e[5mC]*eT*e[5mC]) [compound 337277]  79%
29. 337257 (antisense eG*eG*e[5mC]*eG*eG*d[5mC]*dG*dA*dG*dG*d[5mC]*dT*d[5mC]*d[5mC]*d[5mC]*eT*e[5mC]*eA*eG*eG) [compound 337257]  80%
30. 337264 (antisense e[5mC]*eG*e[5mC]*eA*eT*dA*dT*dG*d[5mC]*d[5mC]*d[5mC]*dA*dA*dT*d[5mC]*eT*eT*eG*eA*e[5mC]) [compound 337264]  81%
31. 337275 (antisense eT*eT*e[5mC]*eT*eG*dT*dT*d[5mC]*dT*dA*dG*dA*dT*d[5mC]*d[5mC]*eT*eG*e[5mC]*eA*e[5mC]) [compound 337275]  82%
32. 337271 (antisense eG*eT*eG*eA*eT*dT*d[5mC]*dT*dT*d[5mC]*d[5mC]*d[5mC]*dA*d[5mC]*dA*eG*eG*e[5mC]*eA*e[5mC]) [compound 337271]  85%
33. 337265 (antisense e[5mC]*eG*eA*e[5mC]*eT*d[5mC]*dT*dT*dG*d[5mC]*dA*dG*dG*dA*dA*eG*e[5mC]*eG*eG*e[5mC]) [compound 337265]  92%

— patent US20050074879A1, “Antisense oligonucleotide modulation of STAT3 expression” (priority 2000, published 2005)
